Assay results as given in patent US7432087B2, “Method for preparing (2S, 3R, 4S)-4-hydroxyisoleucine and analogues thereof” (Centre National de la Recherche Scientifque, priority 2002, dated 2008).

Columns and labels:
[1] = background statement with literature references; cited from earlier work

Row | melting point | SMILES | insulinotropic activity [1]
1 | 193 to 194 °C (dec.) | C[C@@H]([C@H](C)O)[C@@H](NCc1ccccc1)C(=O)O [(2R)-N-Bn-1, (2R,3R,4S)-N-benzyl-4-hydroxyisoleucine] | –
2 | – | C[C@@H]([C@H](C)O)[C@H](N)C(=O)O [compound 1, (2S,3R,4S)-4-hydroxyisoleucine] | possesses an insulinotropic activity
